Values of other authors, collected in US10960082B2, “Tridentate connexon and use thereof” (NEWBIO THERAPEUTICS, INC., priority 2013, dated 2021).

Test system: human carcinoma lines

- IC50: 0.1 to 0.2 µM
SMILES: COc1cccc2c1C(=O)c1c(O)c3c(c(O)c1C2=O)C[C@@](O)(C(=O)CO)C[C@@H]3O[C@H]1C[C@H](N)[C@H](O)[C@H](C)O1 [doxorubicin]
